Laboratory results published in patent US20240327364A1, “THERAPEUTIC TARGETING OF GPR68 TO INDUCE FERROPTOSIS” (University Of Maryland, Baltimore, priority 2023, published 2024).

How the values were obtained:
U87 = assay: Immunogenic cell death markers (CRT externalization, ATP secretion); format: cell-based, human
Protocol: OGM2 treatment of […] increases makers of immunogenic cell death (ICD, such as release of ATP into the extracellular environment ([…]) and calreticulin (CRT) externalization (FIG. 94B and FIG. 94C). Extracellular ATP content was assessed using the Enliten Atp Assay System (PROMEGA) (FIG. 94A). Calreticulin (CRT) externalization 3- and 6-hours post-treatment (see FIG. 94B and FIG. 94C) in U87 cells was assessed using immunofluorescence analysis using polyclonal antibody against calreticulin (Invitrogen™). Immunogenic cell death (ICD) is defined by expression or release of damage-associated molecular patterns (DAMPs), including extracellular ATP release and calreticulin externalization, which stimulate antitumor immune response, which in turn contributes to long-lasting protective antitumor immunity. […]
For the CRT externalization assay, U87 cells were seeded on 96-well plate, then treated with DMSO, […] (DOX), […] and […] (shown as OGM in the figures). […] Cells labelled with CRT were counted automatically with Lionheart™ automated microscope and % of CRT+ cells calculated. […]
For the ATP secretion assay, U87 cells were seeded on 96-well plate, then treated with DMSO, […] (DOX), […] and […] (OGM). At 6 hours, extracellular ATP levels were measured using the ENLITEN ATP Assay (Promega™). […]

[1] = system: U87 glioblastoma spheroids; assay: Matrigel matrix invasion of spheroids; format: cell-based
Excerpt: U87 glioblastoma spheroids were formed in low attachment round bottom plates for 3 days. Spheroids were then covered in Matrigel™, which was allowed to polymerize before treatment with acidified media with or without OGM2. Acidification increased the degree of matrix invasion which is attenuated by OGM2.

WM115 = assay: Agarose drop assay; format: cell-based, human; settings: OGM2 5 μM, 5 days
Protocol: WM115 cells were trypsinized and resuspended at 100,000 cells per mL in low melt agarose. A 10 μl drop of the cell mixture was added to 12-well plate. After solidifying Normal culture media was added with either DMSO 0.5% or OGM2 5 μM. The area around the agarose drop was visualized manually with light microscopy. The cells were incubated for 5 days and visualized. Cells outside of the agarose drop were visualized and quantitated.
FIG. 12A is a schematic of the agarose drop assay. WM115 cells were mixed into a low melt agarose solution and single 10 μL drops were seeded onto cell culture plates. After solidifying, media containing OGM2 (5 μM) or CTL (DMSO […]) was added and wells were observed 5 days later. Immediately after media addition no cells are on the plate outside of the agarose gel in CTL or OGM2. Five days after seeding cells are observed outside of the gel (Black arrows) in CTL but not in OGM2. […] Quantification on the number of cells that escaped from an average of 5 gel drop replicates. FIG. 12B through FIG. 12D show the cells after media addition. No cells are on the plate outside of the agarose gel in CTL or OGM2. Five days after seeding, cells are observed outside of the gel (arrows) in CTL but not in OGM2.

BRSK2 = target: T1, BRSK2 (Homo sapiens, UniProt Q8IWQ3); assay: KinomeScan; format: binding; settings: read-out: % Control
T1 construct: purchased DiscoveRx (KinomeScan service)

FLT3(N841I) = target: T2, FLT3(N841I) (Homo sapiens, UniProt P36888, N841I); assay: KinomeScan; format: binding; settings: read-out: % Control
T2 construct: purchased DiscoveRx (Fremont, CA)

YANK3 = target: T3, YANK3 (Homo sapiens, UniProt Q86UX6); assay: KinomeScan; format: binding; settings: read-out: % Control
T3 construct: purchased DiscoveRx

5-HT1A = target: T4, 5-HT1A (Homo sapiens, UniProt P08908); assay: GPCR Profiler; format: cell-based
T4 construct: host or cells: Chem-1 cells with promiscuous Gα15

NEK2 = target: T5, NEK2 (Homo sapiens, UniProt P51955); assay: KinomeScan; format: binding; settings: read-out: % Control
T5 construct: purchased DiscoveRx

CCR2B = target: T6, CCR2B (Homo sapiens, UniProt P41597); assay: GPCR Profiler; format: cell-based
T6 construct: host or cells: Chem-1 cells with Gα15

MEK6 = target: T7, MEK6 (Homo sapiens, UniProt P52564); assay: KinomeScan; format: binding; settings: read-out: % Control
T7 construct: purchased DiscoveRx (Fremont, CA)

[2] = target: T8, ABL1(F317L)-phosphorylated (Homo sapiens, UniProt P00519, F317L); assay: KinomeScan; format: binding; settings: read-out: % Control
T8 construct: purchased DiscoveRx

RET(M918T) = target: T9, RET(M918T) (Homo sapiens, UniProt P07949, M918T); assay: KinomeScan; format: binding; settings: read-out: % Control
T9 construct: purchased DiscoveRx (Fremont, CA)

M5 = target: T10, M5 (Homo sapiens, UniProt P08912); assay: GPCR Profiler; format: cell-based
T10 construct: host or cells: Chem-1 cells with promiscuous Gα15

BRAF(V600E) = target: T11, BRAF(V600E) (Homo sapiens, UniProt P15056, V600E); assay: KinomeScan; format: binding; settings: read-out: % Control
T11 construct: purchased DiscoveRx (Fremont, CA)

CTK = CTK (Homo sapiens, UniProt P42679); assay: KinomeScan; format: binding; settings: read-out: % Control
IGF1R = target: T12, IGF1R (Homo sapiens, UniProt P08069); assay: KinomeScan; format: binding; settings: read-out: % Control
T12 construct: purchased DiscoveRx (Fremont, CA)

MST1 = target: T13, MST1 (Homo sapiens, UniProt Q13043); assay: KinomeScan; format: binding; settings: read-out: % Control
T13 construct: purchased DiscoveRx

NK1 = target: T14, NK1 (Homo sapiens, UniProt P25103); assay: GPCR Profiler; format: cell-based
T14 construct: host or cells: Chem-1 cells expressing Gα15

LYN = target: T15, LYN (Homo sapiens, UniProt P07948); assay: KinomeScan; format: binding; settings: read-out: % Control
T15 construct: purchased DiscoveRx

T14 sequence (P25103 whole entry): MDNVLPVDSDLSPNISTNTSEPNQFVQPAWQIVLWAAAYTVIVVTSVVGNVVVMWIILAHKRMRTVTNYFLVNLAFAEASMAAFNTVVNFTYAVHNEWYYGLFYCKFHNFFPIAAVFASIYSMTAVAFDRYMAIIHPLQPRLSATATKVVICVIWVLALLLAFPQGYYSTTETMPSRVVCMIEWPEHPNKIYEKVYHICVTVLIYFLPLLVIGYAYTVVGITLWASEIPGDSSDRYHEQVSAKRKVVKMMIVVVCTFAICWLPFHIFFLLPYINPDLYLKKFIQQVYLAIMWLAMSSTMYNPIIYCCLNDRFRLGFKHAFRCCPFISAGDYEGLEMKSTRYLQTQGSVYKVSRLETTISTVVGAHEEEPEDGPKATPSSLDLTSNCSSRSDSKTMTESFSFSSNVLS
T10 sequence (P08912 whole entry): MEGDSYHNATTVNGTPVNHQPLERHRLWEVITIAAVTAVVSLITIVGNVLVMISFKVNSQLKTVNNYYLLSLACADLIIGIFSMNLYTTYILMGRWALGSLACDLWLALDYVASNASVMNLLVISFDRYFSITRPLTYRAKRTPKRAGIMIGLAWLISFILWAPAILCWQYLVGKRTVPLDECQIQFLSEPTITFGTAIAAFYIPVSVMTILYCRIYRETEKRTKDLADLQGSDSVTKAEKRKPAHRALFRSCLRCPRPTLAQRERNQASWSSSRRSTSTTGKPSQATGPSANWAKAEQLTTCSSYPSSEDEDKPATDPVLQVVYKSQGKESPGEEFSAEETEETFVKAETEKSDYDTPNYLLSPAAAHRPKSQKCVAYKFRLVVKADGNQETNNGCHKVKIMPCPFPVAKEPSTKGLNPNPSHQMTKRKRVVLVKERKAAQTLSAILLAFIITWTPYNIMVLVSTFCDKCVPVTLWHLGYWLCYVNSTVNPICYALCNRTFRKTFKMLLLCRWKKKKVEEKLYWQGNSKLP
T4 sequence (P08908 whole entry): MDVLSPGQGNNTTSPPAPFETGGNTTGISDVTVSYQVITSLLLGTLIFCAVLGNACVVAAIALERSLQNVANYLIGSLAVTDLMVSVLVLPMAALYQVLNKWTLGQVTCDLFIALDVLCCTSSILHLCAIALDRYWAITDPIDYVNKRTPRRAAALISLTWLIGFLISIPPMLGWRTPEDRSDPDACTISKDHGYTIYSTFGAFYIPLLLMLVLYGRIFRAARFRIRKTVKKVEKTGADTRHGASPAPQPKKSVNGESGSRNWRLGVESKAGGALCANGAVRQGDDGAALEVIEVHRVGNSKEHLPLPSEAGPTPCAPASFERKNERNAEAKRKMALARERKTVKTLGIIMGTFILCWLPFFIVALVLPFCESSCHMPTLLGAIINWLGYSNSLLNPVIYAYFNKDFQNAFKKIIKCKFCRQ
T6 sequence (P41597 1-360 isoform P41597-2): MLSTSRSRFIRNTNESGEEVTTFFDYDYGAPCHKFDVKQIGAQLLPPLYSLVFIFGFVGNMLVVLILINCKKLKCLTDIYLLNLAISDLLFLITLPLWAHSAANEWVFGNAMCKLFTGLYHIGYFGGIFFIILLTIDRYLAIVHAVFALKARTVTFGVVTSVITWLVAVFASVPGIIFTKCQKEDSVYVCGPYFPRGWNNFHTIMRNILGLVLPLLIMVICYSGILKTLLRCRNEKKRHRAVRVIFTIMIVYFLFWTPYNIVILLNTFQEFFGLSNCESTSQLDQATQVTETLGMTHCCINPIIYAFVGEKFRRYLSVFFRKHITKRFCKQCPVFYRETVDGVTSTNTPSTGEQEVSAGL
Sequence of CTK (P42679 whole entry): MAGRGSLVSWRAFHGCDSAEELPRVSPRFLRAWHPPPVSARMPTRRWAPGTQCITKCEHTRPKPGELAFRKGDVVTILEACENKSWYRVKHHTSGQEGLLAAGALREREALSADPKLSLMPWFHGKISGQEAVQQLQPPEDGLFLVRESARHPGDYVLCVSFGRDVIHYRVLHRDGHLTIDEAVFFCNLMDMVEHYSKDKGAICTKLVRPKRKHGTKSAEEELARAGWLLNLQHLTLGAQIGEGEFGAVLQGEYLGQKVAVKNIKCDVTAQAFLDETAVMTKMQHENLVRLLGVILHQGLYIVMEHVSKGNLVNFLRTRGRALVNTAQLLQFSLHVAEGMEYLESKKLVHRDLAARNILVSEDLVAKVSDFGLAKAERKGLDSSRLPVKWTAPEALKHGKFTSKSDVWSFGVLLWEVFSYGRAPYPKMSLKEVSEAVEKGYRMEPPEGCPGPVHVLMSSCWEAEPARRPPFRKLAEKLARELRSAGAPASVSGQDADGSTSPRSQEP
T9 sequence (P07949 29-1114 M918T): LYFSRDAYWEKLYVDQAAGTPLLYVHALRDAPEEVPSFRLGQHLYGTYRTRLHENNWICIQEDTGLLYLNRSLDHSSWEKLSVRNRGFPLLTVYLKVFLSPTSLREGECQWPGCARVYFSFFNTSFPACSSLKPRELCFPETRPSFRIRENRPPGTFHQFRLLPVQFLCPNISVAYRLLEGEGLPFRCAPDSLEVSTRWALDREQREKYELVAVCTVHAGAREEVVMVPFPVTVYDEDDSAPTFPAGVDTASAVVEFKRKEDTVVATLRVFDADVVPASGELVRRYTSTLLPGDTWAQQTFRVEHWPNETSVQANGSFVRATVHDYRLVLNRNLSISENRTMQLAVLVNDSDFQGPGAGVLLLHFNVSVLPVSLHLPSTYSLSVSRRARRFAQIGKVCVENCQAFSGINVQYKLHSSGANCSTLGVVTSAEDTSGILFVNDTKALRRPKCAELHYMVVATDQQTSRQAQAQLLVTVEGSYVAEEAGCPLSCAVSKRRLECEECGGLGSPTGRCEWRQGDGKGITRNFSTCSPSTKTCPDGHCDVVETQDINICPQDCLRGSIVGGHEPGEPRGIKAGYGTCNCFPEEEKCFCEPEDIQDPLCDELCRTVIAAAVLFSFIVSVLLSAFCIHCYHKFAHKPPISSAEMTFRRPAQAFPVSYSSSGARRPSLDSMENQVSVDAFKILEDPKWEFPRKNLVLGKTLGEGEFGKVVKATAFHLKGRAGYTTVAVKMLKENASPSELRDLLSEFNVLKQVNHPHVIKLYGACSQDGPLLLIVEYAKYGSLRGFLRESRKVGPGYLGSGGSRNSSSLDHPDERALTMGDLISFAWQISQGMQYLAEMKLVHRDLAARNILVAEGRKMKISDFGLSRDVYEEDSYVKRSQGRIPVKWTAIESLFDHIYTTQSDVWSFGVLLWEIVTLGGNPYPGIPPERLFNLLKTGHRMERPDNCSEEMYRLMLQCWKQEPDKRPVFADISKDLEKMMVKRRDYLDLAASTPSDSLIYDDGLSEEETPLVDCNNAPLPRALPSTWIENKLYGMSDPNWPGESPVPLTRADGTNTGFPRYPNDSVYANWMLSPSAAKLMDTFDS
T12 sequence (P08069 31-1367): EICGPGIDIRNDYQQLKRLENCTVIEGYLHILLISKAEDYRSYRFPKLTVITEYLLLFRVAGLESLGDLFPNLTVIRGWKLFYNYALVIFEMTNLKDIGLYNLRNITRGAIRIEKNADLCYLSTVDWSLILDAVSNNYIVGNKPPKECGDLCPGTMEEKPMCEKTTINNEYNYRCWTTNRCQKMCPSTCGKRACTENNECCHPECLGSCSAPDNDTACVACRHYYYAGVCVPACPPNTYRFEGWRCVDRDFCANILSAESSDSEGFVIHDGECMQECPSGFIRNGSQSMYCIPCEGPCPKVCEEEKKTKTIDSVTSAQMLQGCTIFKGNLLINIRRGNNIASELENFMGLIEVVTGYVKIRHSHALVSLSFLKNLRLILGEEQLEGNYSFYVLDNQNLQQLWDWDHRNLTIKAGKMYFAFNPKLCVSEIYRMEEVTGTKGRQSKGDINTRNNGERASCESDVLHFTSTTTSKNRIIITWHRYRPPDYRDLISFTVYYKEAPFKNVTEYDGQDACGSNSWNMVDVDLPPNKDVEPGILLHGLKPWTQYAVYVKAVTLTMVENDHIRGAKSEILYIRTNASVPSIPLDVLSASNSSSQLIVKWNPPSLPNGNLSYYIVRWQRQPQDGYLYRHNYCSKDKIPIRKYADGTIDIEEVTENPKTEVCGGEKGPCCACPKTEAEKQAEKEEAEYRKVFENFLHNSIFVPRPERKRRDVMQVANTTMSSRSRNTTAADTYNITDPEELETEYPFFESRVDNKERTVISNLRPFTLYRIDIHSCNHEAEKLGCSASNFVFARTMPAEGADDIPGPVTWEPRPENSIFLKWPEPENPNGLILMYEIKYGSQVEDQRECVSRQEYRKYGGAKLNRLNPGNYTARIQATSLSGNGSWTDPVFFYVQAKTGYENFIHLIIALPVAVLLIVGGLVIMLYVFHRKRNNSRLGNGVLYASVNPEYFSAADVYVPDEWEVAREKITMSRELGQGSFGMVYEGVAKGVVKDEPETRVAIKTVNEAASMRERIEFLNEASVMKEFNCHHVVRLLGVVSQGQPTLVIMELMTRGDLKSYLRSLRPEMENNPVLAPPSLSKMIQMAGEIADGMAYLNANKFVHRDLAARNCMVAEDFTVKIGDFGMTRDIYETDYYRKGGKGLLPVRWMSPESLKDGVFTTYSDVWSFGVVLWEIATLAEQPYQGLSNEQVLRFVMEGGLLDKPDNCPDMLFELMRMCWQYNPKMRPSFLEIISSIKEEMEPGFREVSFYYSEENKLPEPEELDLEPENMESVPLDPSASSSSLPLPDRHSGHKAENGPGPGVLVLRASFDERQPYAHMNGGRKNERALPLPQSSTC
T7 sequence (P52564 whole entry): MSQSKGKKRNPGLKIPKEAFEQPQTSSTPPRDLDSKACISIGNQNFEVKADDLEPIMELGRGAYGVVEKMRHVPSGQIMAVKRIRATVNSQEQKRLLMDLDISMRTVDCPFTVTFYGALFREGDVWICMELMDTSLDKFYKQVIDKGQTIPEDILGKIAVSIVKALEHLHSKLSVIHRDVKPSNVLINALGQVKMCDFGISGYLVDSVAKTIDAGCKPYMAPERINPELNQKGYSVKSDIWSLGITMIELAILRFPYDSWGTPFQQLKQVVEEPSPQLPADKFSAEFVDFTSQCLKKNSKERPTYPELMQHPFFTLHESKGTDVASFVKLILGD

CCc1ccc2c(c1)C1(NN=C(c3ccccc3)S1)C(=O)N2 (stereo not drawn) [OGM2]
externalization of CRT (U87; 3 hours of treatment): significant externalization of CRT | secretion of ATP (U87; 6 hours): secretion of ATP | acidification-increased matrix invasion [1]: attenuated | migration out of agarose drop (WM115): migrated significantly less than the vehicle treated cells

CCc1ccc2c(c1)C1(NN=C(c3cccc4ccccc34)S1)C(=O)N2 (stereo not drawn) [OGM1, 5-ethyl-5′-naphthalen-1-ylspiro[1H-indole-3,2′-3H-1,3,4-thiadiazole]-2-one]
remaining binding at 10 µM (BRSK2): 100% | remaining binding at 10 µM (FLT3(N841I)): 91% | remaining binding at 10 µM (YANK3): 100% | Antagonism (5-HT1A; 10 uM): −7.5 | Agonism (5-HT1A; 12.5 uM): −0.8 | remaining binding at 10 µM (NEK2): 78% | Antagonism (CCR2B; 10 uM): 0.7 | Agonism (CCR2B; 12.5 uM): 0.7 | remaining binding at 10 µM (MEK6): 76% | remaining binding at 10 µM [2]: 92% | remaining binding at 10 µM (RET(M918T)): 92% | Antagonism (M5; 10 uM): 3.4 | Agonism (M5; 12.5 uM): −0.6 | remaining binding at 10 µM (BRAF(V600E)): 94% | remaining binding at 10 µM (CTK): 100% | remaining binding at 10 µM (IGF1R): 84% | remaining binding at 10 µM (MST1): 100% | Antagonism (NK1; 10 uM): −1.4 | Agonism (NK1; 12.5 uM): −1.5 | remaining binding at 10 µM (LYN): 100%
